Where no end group is shown, it is not given here.
Columns and labels:
[1] = system: Candida albicans ATCC 90028; parameters: method as in Gunasekera et al., 2018; details: ref Gunasekera et al., 2018; cited from earlier work
[2] = system: Candida albicans ATCC 90028; details: ATCC 90028, 5 h
Method: (§1) The three bacterial strains: Escherichia coli ATCC 25922, Pseudomonas aeruginosa ATCC 27853 Staphylococcus aureus ATCC 29213 as well as the fungal strain Candida albicans ATCC 90028 derived from clinical wound infections were obtained from the Department of Clinical Bacteriology at Lund University Hospital.
(§2) Antimicrobial activities of the peptides were evaluated using the two-step microdilution assay ([Strömstedt et al., 2017]), which is designed for testing AMPs without activity-inhibiting components. Briefly, the microbial suspension was washed twice with 10 mM Tris buffer (set to pH 7.4 at 37°C). 96-well plates (U-shaped, untreated polystyrene) were prepared with peptide 2-fold serial dilutions in Tris buffer. The culture density was quantified by OD600, diluted in Tris buffer and 50,000 cells aliquoted to each well in the 96-well plate to a final 100 μl volume. After 5 h of aerobic incubation at 37°C, 5 μl of 20% TSB medium was added to each well (resulting in 1% TSB) and the plates were re-incubated. Growth-inhibition was monitored when controls produced pellet sizes of 2 mm in diameter (close to growth saturation), which equates to 5, 8, 10, and 12 h for E. coli, S. aureus, P. aeruginosa, and C. albicans, respectively. […] The MIC-values in Table 1, are medians from triplicate experiments, while the data presented in the Figure 2 are the same values relative to that of KR-12.

[3] = system: Escherichia coli ATCC 25922; details: ATCC 25922, 5 h
Method: as §1, §2

[4] = system: Staphylococcus aureus ATCC 29213; parameters: method as in Gunasekera et al., 2018; details: ref Gunasekera et al., 2018; cited from earlier work
[5] = system: Escherichia coli ATCC 25922; parameters: method as in Gunasekera et al., 2018; details: ref Gunasekera et al., 2018; cited from earlier work
[6] = system: human lymphoma cell line U-937 GTB; details: cited from earlier work
[7] = Liposome leakage assay, fungal liposomes; parameters: species or system S. cerevisiae; details: 50% leakage, 45 min incubation, 37°C; read-out: EC50 fung. (liposome leakage)
Method: FIGURE 3 Peptide induced liposome leakage. Bacterial liposomes based on E. coli polar lipid extract (A,B), and fungal liposomes of S. cerevisiae polar lipid extract and ergosterol (7:3) (C), were monitored for fluorescent marker leakage over 45 min of incubation with peptides. (A) Compares membrane disrupting efficacy at the 45 min mark for the parent peptide, monomer, lysine substitutions and dimerization, (B) effects of linker length, monomer directionality and backbone cyclization, (C) effect on KR-12 directionality and dimerization on a fungal liposome system. […] Results are means from triplicate experiments with standard deviations.
The liposome production and the liposome leakage assay were performed similar to what has previously been described ([Strömstedt et al., 2016]). […] Membrane permeability was measured by monitoring carboxyfluorescein efflux from the liposomes to the external low concentration environment, resulting in loss of self-quenching and an increased fluorescence signal. […] The effect of each peptide concentration on liposome integrity was monitored for 45 min, at which point the leakage had largely subsided. […] EC50-values are calculated from sigmoidal dose-response curves of leakage percentage as a function of the peptide concentration (log10).

[8] = system: Human type A RBCs; assay: Hemolysis assay; type: cell-based
Method: Peptides were dissolved in water and serially diluted in PBS to give 20 μl test solutions in a 96-well U-bottomed microtiter plate (Nunc). Human type A RBCs (red blood cells) were washed with PBS and centrifuged at 1500 g for 60 s in a microcentrifuge several times until a clear supernatant was obtained. A 0.25% suspension of washed RBCs in PBS (100 μl) was added to the peptide solutions. The plate was incubated at 37°C for 1 h and centrifuged at 150 g for 5 min. Aliquots of 100 μl were transferred to a 96-well flat-bottomed microtiter plate (Falcon) and the absorbance was measured at 405 nm with an automatic Multiskan Ascent plate reader (Labsystems). The amount of hemolysis was calculated as the percentage of maximum lysis (1% Triton X-100 control) after adjusting for minimum lysis (PBS control). Synthetic melittin (Sigma) was used for comparison. The hemolytic dose necessary to lyse 50% of the RBCs (HD50) was calculated using the regression constant from the linear portion of the hemolytic titration curve (GraphPad Prism software).

[9] = system: Escherichia coli; parameters: method as in Wang, 2008; details: ref Wang, 2008; cited from earlier work
[10] = system: Pseudomonas aeruginosa ATCC 27853; parameters: method as in Gunasekera et al., 2018; details: ref Gunasekera et al., 2018; cited from earlier work
[11] = Liposome leakage assay, bacterial liposomes; parameters: species or system E. coli
Method: Membrane disruption was assayed by liposome leakage. […] E. coli and Saccharomyces cerevisiae membrane lipids were reconstituted into large unilamellar vesicles, trapping a self-quenching fluorescent marker.
Polar lipid extract from E. coli, and S. cerevisiae (Avanti Polar Lipids, Alabaster, AL-US) were used, the latter supplemented with ergosterol (Sigma-Aldrich) at a 7:3 molar ratio. In brief, dry lipid films were deposited on round-bottom flask walls and re-suspended in Tris buffer containing of 100 mM 5(6)-carboxyfluorescein. Multilamellar structures and polydispersity were reduced by repeated extrusion through 100-nm polycarbonate membranes. Un-trapped carboxyfluorescein was removed by gel separation. Membrane permeability was measured by monitoring carboxyfluorescein efflux from the liposomes to the external low concentration environment, resulting in loss of self-quenching and an increased fluorescence signal. The leakage experiments were performed on a 96-well plate format. […] EC50-values are calculated from sigmoidal dose-response curves of leakage percentage as a function of the peptide concentration (log10).

For KRIVQRIKDFLR [KR-12], which “MIC against Candida albicans” value [1] is on record?
The value was 10 µM.

What about the MIC fung. [2] of the same sequence?
The MIC fung. was 10 µM.

And the MIC bact. [3]?
Its MIC bact. is 2.5 µM.

And the “MIC against Staphylococcus aureus” value [4]?
Its value is 10 µM.

What about the “MIC against Escherichia coli” value [5] of the same sequence?
Its value is 2.5 µM.

And the “loss of cell viability” value ([6]; at the maximum concentration of 80 μM, ref Gunasekera et al., 2018)?
The value was 13%.

And the IC50 [6]?
Its IC50 is greater than 80 µM.

What about the EC50 [7] of the same sequence?
The EC50 was 0.95 µM.

What about the “HC50 (hemolysis)” value [8] of the same sequence?
Its value is greater than 80 µM.

And the “MIC against Escherichia coli” value [9]?
Its value is 40 µM.

And the “MIC against Pseudomonas aeruginosa” value [10]?
Its value is 10 µM.

What about the EC50 ([11]; 50% leakage, 45 min incubation, 37°C, read-out: EC50 bact. (liposome leakage)) of the same sequence?
The EC50 was roughly 25 µM.

What about the “fold higher concentration than LL-37 required to reach 50% leakage” value ([11]; E. coli liposomes) of the same sequence?
Its value is 38 fold.
